Measurements: US20130116251A1, “Novel HSP90 Inhibitor” (Nippon Kayaku Kabushiki Kaisha, priority 2005, published 2013)
pIC50: −log10 of the molar value. Counter-ions that a name gives are not always drawn.

What was measured:
[1] = molecular target: rHSP90; test: HSP90 binding assay (BIACORE SPR; inhibition of binding between rHSP90 and fixed herbimycin A); conditions: concentration inhibiting binding between rHSP90 (50 μg/mL) and fixed herbimycin A by 50%, BIACORE-X SPR; read-out: HSP90 inhibitory activity IC50
Source text: The HSP90 binding assay system is a system for detecting the change of mass as SPR signal caused by the binding between herbimycin A fixed on a sensor chip and rHSP90 by BIACORE-X, in which 17-(6-amino hexylamino)herbimycin A is fixed through a carboxyl group on the surface of the sensor chip (CM5, BIACORE) on which carboxymethyldextran has been introduced. The method was according to the protocol of BIACORE. In addition, 17-(6-aminohexylamino)herbimycin A was synthesizes as described below.
rHSP90 (Stressgen Biotechnologies Corp., Victoria, BC Canada) at 50 μg/mL was exposed for 10 seconds to the surface of the sensor chip on which herbimycin A was fixed and the SPR signal (numerical value of interaction) was detected.
After mixing rHSP90 protein (5×10^−7M (50 μg/mL)) with the triazole derivative of the present invention, the mixture was exposed for 10 seconds to the surface of the sensor chip on which herbimycin A was fixed, and the SPR signal was measured by BIACORE-X.
Next, using following formula (1), the inhibitory activity (binding inhibition rate (%)) of the compound of the present invention to the binding between rHSP90 and fixed herbimycin A was obtained.
binding inhibition rate(%)=((b−s)/b)×100 Formula (1)
wherein b is the SPR signal when the compound of the present invention is not added to the sample: s is the SPR signal when the compound of the present invention is added to the sample.

[2] = tested on: HSP90 client protein Her2 in MCF7 cells; test: Measurement test for amount of HSP90 client protein Her2 (Western blotting); format: cell-based; conditions: MCF7 cells treated 16 hours at 3-5 concentrations
Description: (§1) MCF7 cells (American Type Culture Collection, Rockville, Md.) were treated with the compounds of the present invention at various concentrations for 16 hours to confirm that the HSP90 inhibitors of the present invention induce a depression of intracellular concentration of the client protein or target polypeptide that bind to HSP90. The amount of the HSP90 client protein Her2 and ERα was evaluated by the Western blotting method.
(§2) One million cells were seeded in a 6 cm dish, and 24 hours later the compounds of the present invention (Example 1-2, Example 2-1, Example 2-13, Example 2-2, Example 3-4, Example 2-5, Example 3-16, Example 3-6, Example 2-7, Example 3-27, Example 2-10 and Example 3-18) were added. Cells treated with the compounds were washed, mixed with 150 μl of lysis buffer (RIPA, 150 mM NaCl, 1% NP40, 0.1% deoxycholate (sodium salt), 0.1% SDS, 1 mM EDTA, 10 mM Tris-HCl (pH 8.0)) and incubated at 4° C. for 30 minutes. The cell lysates were centrifuged (15,000 rpm, 20 minutes) and protein (20 μg) of the supernatant was subjected to SDS polyacrylamide gel electrophoresis (SDS-PAGE). After finishing the electrophoresis, proteins in the gel were transferred to a PVDF membrane. The membrane after the transfer was treated with a primary antibody against the HSP90 client protein (anti Her2 or anti ERa antibody, both from Santa Cruz Biotechnology, Santa Cruz, Calif.), then treated with secondary antibodies (anti-rabbit Ig, horse radish peroxidase conjugated F(ab′)2 fragment (derived from donkey): Amersham Biosciences, UK Limited, Buckinghamhshire, UK.) and then the amount of the client protein was detected as the intensity of chemiluminescence signal with a chemiluminescence reagent (ECL: Amersham Biosciences UK Limited, Buckinghamshire, UK).

[3] = tested on: HSP90 client protein ERα in MCF7 cells; test: Measurement test for amount of HSP90 client protein ERα (Western blotting); format: cell-based; conditions: MCF7 cells treated 16 hours at 3-5 concentrations
Description: as §1, §2

[4] = tested on: Human breast cancer cells (MCF7); test: Antiproliferative activity on MCF7 cells (methylene blue method); format: cell-based; conditions: Homo sapiens, MCF7, 72 h, MCF7 cells, 72 hours treatment, 660 nm absorbance after methylene blue staining; read-out: Antiproliferative activity IC50
Description: Human breast cancer cells (MCF7) were treated with samples of various concentrations of known HSP90 inhibitors (that is, geldanamycin, herbimycin, radicicol and PU3) and the compounds of the present invention for 72 hours to confirm the effect of the triazole derivatives of the present invention on the cell growth. The cell ratio after the drug treatment was evaluated by measuring 660 nm absorbance by a microplate reader (BioRad) after staining the cells with the methylene blue method.
Cells were distributed to wells of 96 well plates at 2000 cells per well and treated with drugs 24 hours later. Further, the medium was removed 72 hours later and the cells were fixed by adding 50 μl of methanol and standing at room temperature for 2 minutes. After removing methanol, 100 μl of a staining solution was added and stained for 30 minutes. After washing 3 times with 200 μl of distilled water, 3% HCl solution was added, and the 660 nm absorbance of methylene blue was measured by a microplate reader (BioRad).
Next, the antiproliferative activity rate (%) was obtained by the formula (2) below.
Antiproliferative activity rate(%)=((B−A)/B)×100 Formula (2)
wherein B is 660 nm absorbance of the sample when the compound of the present invention is not added, and A is 660 nm absorbance of the sample when the compound of the present invention is added.
From the concentration of the triazole derivative of the present invention and the antiproliferative activity rate, the concentration was obtained using the above formula, at which the cell growth was suppressed by 50% by comparing with the control, and termed an IC50 value.
The antiproliferative activity rate (%) was obtained for SH-b04, SH-b05 and SH-b06 described above by a similar manner to that of the triazole derivatives of the present invention.

[5] = tested on: Human lung cancer H460; test: Antitumor effect on nude mice transplanted with human lung cancer H460; format: in vivo; conditions: tail vein, starting day = 1.0
Description: Antitumor Effect on Nude Mice Transplanted with Human Lung Cancer
Human lung cancer H460 tumor fragment, which had been passaged subcutaneously in nude mice, was made into about 3 mm fragment and transplanted subcutaneously to the back of nude mice using a trocar. When the tumor volume grew to about 50 mm^3 or above, the compound of the present invention was administered to the tail vein once a day for 5 or 7 days every day. The compound of the present invention was dissolved in DMSO, mixed with TWEEN 80, and then diluted with a 5% glucose injection solution and used. The vehicle of the compound was administered to the control group of OH-a01. The control groups in other experiments were not treated. The tumor volume was measured on the first administration day and on the evaluation day (7 or 8 days after the start of the administration), and the relative tumor volume of the evaluation day was obtained from the tumor volume on the first administration day. Further, the tumor volume was calculated by measuring the major axis (Lmm) and minor axis (Wmm) of the tumor and by the formula (L×W^2)/2.
Relative tumor volume represents the average relative tumor volume on day 7 after the start of the administration, assuming the tumor volume of the starting day is 1.0.
Relative tumor volume represents the average relative tumor volume on day 8 after the start of the administration, assuming the tumor volume of the starting day is 1.0.

[6] = Table 10, 100 mg/kg/day, 5 days continuous, day 8, control group 6.5 ± 2.0

| melting point | pIC50 [1] | pIC50 [4] | Structure (SMILES) | amount of HSP90 client protein Her2 [2] | amount of HSP90 client protein ERα [3] | Relative tumor volume (Average ± SD) ([5]; Table 8, 3.8 mg/kg/day, 7 days continuous, day 7, control group 7.3 ± 1.7) | Relative tumor volume (Average ± SD) ([5]; Table 8, 7.5 mg/kg/day, 7 days continuous, day 7, control group 7.3 ± 1.7) | Relative tumor volume (Average ± SD) ([5]; Table 9, 75 mg/kg/day, 5 days continuous, day 8, control group 4.6 ± 3.1) | Relative tumor volume (Average ± SD) ([5]; Table 9, 150 mg/kg/day, 5 days continuous, day 8, control group 4.6 ± 3.1) | Relative tumor volume (Average ± SD) ([5]; Table 10, 50 mg/kg/day, 5 days continuous, day 8, control group 6.5 ± 2.0) | Relative tumor volume (Average ± SD) [5, 6] | Relative tumor volume (Average ± SD) ([5]; Table 10, 150 mg/kg/day, 5 days continuous, day 8, control group 6.5 ± 2.0) |
| --- | --- | --- | --- | --- | --- | --- | --- | --- | --- | --- | --- | --- |
| 233 °C (dec.) | – | – | COc1ccc(-n2c(-c3cc(C(C)C)c(O)cc3O)nnc2S(=O)(=O)CCCN(C)C)cc1 (as salt: hydrochloride) [SFN2-a08, 4-[5-(3-dimethylamino-propane-1-sulfonyl)-4-(4-methoxy-phenyl)-4H-[1,2,4]triazol-3-yl]-6-isopropyl-benzene-1,3-diol] | – | – | – | – | – | – | – | – | – |
| – | 6.54 | 6.74 | COc1ccc(-n2c(NS(C)(=O)=O)nnc2-c2cc(C(C)C)c(O)cc2O)cc1 [Example N1-a08, N-[5-(2,4-dihydroxy-5-isopropyl-phenyl)-4-(4-methoxy-phenyl)-4H-[1,2,4]triazol-3-yl]-methanesulfonamide] | depression | depression | – | – | – | – | – | – | – |
| – | 6.85 | 8.31 | CC(C)c1cc(-c2n[nH]c(=O)n2-c2ccc(N3CCOCC3)cc2)c(O)cc1O [OH-a01, 4-{5-hydroxy-4-[4-(morpholin-4-yl)-phenyl]-4H-[1,2,4]triazol-3-yl}-6-isopropyl-benzene-1,3-diol] | depression | depression | 3.3 ± 0.7 | 1.7 ± 0.5 | – | – | – | – | – |
| – | 6.74 | 7.80 | CC(C)c1cc(-c2n[nH]c(=O)n2-c2ccc(CN3CCOCC3)cc2)c(O)cc1O [OH-a02, 4-{5-hydroxy-4-[4-(morpholin-4-ylmethyl)-phenyl]-4H-[1,2,4]triazol-3-yl}-6-isopropyl-benzene-1,3-diol] | depression | depression | – | – | 3.5 ± 2.3 | 2.1 ± 0.1 | – | – | – |
| – | 6.66 | 7.11 | CC(C)c1cc(-c2n[nH]c(=O)n2-c2ccc(O)cc2)c(O)cc1O [OH-a11, 5-(2,4-dihydroxy-5-isopropylphenyl)-4-(4-hydroxyphenyl)-4H-[1,2,4]triazol-3-one] | depression | depression | – | – | – | – | – | – | – |
| – | 6.60 | 7.15 | CC(C)c1cc(-c2n[nH]c(=O)n2-c2ccc(CN3CCN(C)CC3)cc2)c(O)cc1O [OH-a13, 5-(2,4-dihydroxy-5-isopropylphenyl)-4-[4-(4-methylpiperazin-1-ylmethyl)phenyl]-2,4-dihydro-[1,2,4]triazol-3-one] | depression | depression | – | – | – | – | 1.4 ± 0.5 | 1.1 ± 0.3 | – |
| 261 to 262 °C (dec.) | 6.89 | 7.42 | CC(C)c1cc(-c2n[nH]c(=O)n2C(C)C)c(O)cc1O [OH-a21, 5-(2,4-dihydroxy-5-isopropyl-phenyl)-4-isopropyl-2,4-dihydro-[1,2,4]triazol-3-one] | depression | depression | – | – | – | – | – | – | – |
| – | 6.15 | 7.16 | COc1ccc(-n2c(-c3cc(C(C)C)c(O)cc3O)nnc2S(=O)(=O)CCCN(C)C)cc1 [SFN2-a08, 4-[5-(3-dimethylamino-propane-1-sulfonyl)-4-(4-methoxy-phenyl)-4H-[1,2,4]triazol-3-yl]-6-isopropyl-benzene-1,3-diol] | depression | depression | – | – | – | – | – | – | – |
| – | 6.23 | 7.36 | COc1ccc(-n2c(-c3cc(C(C)C)c(O)cc3O)nnc2S(=O)(=O)CCCN2CCCCC2)cc1 [SFN3-a08, 4-isopropyl-6-[4-(4-methoxy-phenyl)-5-(3-piperidin-1-yl-propane-1-sulfonyl)-4H-[1,2,4]triazol-3-yl]-benzene-1,3-diol] | depression | depression | – | – | – | – | – | 5.4 ± 1.3 | 2.9 ± 0.6 |
| – | 6.92 | 6.82 | CC(C)c1cc(-c2nnc(S(C)(=O)=O)n2-c2ccc(CN3CCOCC3)cc2)c(O)cc1O [SFN-a02, 4-isopropyl-6-{5-methanesulfonyl-4-[4-(morpholin-4-ylmethyl)-phenyl]-4H-[1,2,4]triazol-3-yl}-benzene-1,3-diol] | depression | depression | – | – | – | – | – | – | – |
| – | 7.03 | 6.57 | COc1ccc(-n2c(-c3cc(C(C)C)c(O)cc3O)nnc2S(C)(=O)=O)cc1 [SFN-a08, 4-isopropyl-6-[5-methanesulfonyl-4-(4-methoxy-phenyl)-4H-[1,2,4]triazol-3-yl]-benzene-1,3-diol] | depression | depression | – | – | – | – | – | – | – |
| – | 6.62 | 7.44 | CC(C)c1cc(-c2n[nH]c(=S)n2-c2ccc(CN3CCOCC3)cc2)c(O)cc1O [SH-a02, 4-isopropyl-6-{5-mercapto-4-[4-(morpholin-4-ylmethyl)-phenyl]-4H-[1,2,4]triazol-3-yl}-benzene-1,3-diol] | depression | depression | – | – | – | – | – | – | – |
